Read-outs that look alike come from different tables or passages of the source. Blank lines part the entries; values can stand above or below the molecule they belong to.
How the values were obtained:
HL60 cells [1] = test: Standalone cytotoxicity, WST-1 colorimetric assay, HL60; format: cell-based; details: Homo sapiens, HL-60
Experimental: (§1) All the cell lines were grown at density of 1×10^5 cells per ml and seeded (100 μl of cell suspension/well) on 96-well microtiter plates with or without escalating doses of SMAC-mimic compounds. Cells were incubated at 37° C. in a 5% CO2 fully humidified atmosphere and examined at 24, 48 and 72 hours for cytotoxicity with the WST-1 colorimetric assay. […] Data are expressed as mean percentage of three replicates normalized to the untreated control.

K562 cells [2] = test: Standalone cytotoxicity, WST-1 colorimetric assay, K562; format: cell-based; details: Homo sapiens
Experimental: as §1

ARH77 cell line = test: Standalone cytotoxicity, WST-1 colorimetric assay, ARH77; format: cell-based; details: Homo sapiens, ARH-77
Experimental: as §1, with “HL60 and K562 human cell lines were cultured in RPMI 1640 culture medium supplemented with 10% FBS while the ARH77 and KMS26 cell lines were cultured in IMDM culture medium supplemented with 10% FBS. All” for “All”

KMS26 cell line = test: Standalone cytotoxicity, WST-1 colorimetric assay, KMS26; format: cell-based; details: Homo sapiens, KMS-26
Experimental: as §1

HL60 cells [3] = test: Combination treatment with cytotoxic agents, WST-1 assay, HL60; format: cell-based; details: Homo sapiens, HL-60, 72 h; read-out: cell growth/viability, mean percentage normalized to the untreated control
MDA-MB-231 cells = test: Standalone cytotoxicity, MTT assay, MDA-MB-231; format: cell-based; details: Homo sapiens; for IC80: read-out: IC80 (μM ± standard Deviation); for IC50: read-out: IC50 (μM ± standard Deviation)
Experimental: Reagents for cell culture were purchased from Sigma unless otherwise indicated below. […] A subcultivation ratio of 1:4 was used.
(§2) The cellular growth inhibitory effect of our compounds was evaluated using the MTT assay (Sigma). After 96 hours of treatment, 10 μl of MTT reagent solution (5 mg of MTT powder/ml diluted in Phosphate Buffer Salt saline solution) were added in each well and allowed to react for 3 hours in the incubator. After 3 hours cells were solubilized in Lysis Buffer (10% SDS/0.1% HCl in water, 100 μl for each well) for 24 hours at 37° C. Finally, the absorbance was measured at 570 nm using a multiplate reader. Absorbance values were collected and IC50/IC80 values were determined using GraphPad Prism 5 software. The experiments were repeated twice.
MDA-MB-231 cells were seeded in 96-well flat bottom cell culture plates at a density of 5000 cells/well in 100 μl of culture medium and allowed to adhere for 24 hours in the incubator. After 24 hours MDA-MB-231 cells were exposed to the compounds at various concentrations for 96 hours in the incubator (50 nM, 100 nM, 200 nM, 500 nM, 1 μM, 5 μM, 10 μM, 50 μM and 100 μM). Each point was done in triplicate.
as §2, with “After” for “The cellular growth inhibitory effect of our compounds was evaluated using the MTT assay (Sigma). After”

K562 cells [4] = test: Combination treatment with cytotoxic agents, WST-1 assay, K562; details: Homo sapiens, K562, 72 h, read-out: cell growth/viability, mean percentage normalized to the untreated control
human XIAP BIR3 domain = biological target: T1, human XIAP BIR3 domain (Homo sapiens, UniProt P98170); test: Fluorescence polarization competitive binding, displacement of FITC-SMAC probe from XIAP BIR3-His-tag; details: XIAP BIR3, average of three independent measurements
T1 construct: human XIAP BIR3 domain from residue 241 to 356; made in house; host or cells: Escherichia coli BL21
T1 sequence (P98170 241-356): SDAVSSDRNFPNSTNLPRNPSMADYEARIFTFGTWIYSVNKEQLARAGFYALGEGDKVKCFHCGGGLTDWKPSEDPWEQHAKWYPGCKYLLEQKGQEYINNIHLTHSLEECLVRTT
Experimental: (§3) Data were analyzed using Prism 4.0 software (Graphpad Software).

[5] = biological target: T2, human XIAP linker-BIR2-BIR3 (Homo sapiens, UniProt P98170); test: Fluorescence polarization competitive binding, displacement of SMAC-1F probe from XIAP linker-BIR2-BIR3-His-tag; details: XIAP linker-BIR2-BIR3, average of three independent measurements
T2 construct: human XIAP from residue 124 to 356 (linker-BIR2-BIR3); made in house; host or cells: Escherichia coli BL21
T2 sequence (P98170 124-356): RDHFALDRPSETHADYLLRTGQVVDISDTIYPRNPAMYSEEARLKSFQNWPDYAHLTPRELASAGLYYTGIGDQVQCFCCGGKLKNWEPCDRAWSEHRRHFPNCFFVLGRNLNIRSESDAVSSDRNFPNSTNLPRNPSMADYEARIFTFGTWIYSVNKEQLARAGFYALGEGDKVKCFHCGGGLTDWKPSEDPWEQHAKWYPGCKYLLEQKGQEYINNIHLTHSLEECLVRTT
Experimental: as §3

XIAP = XIAP (Homo sapiens, UniProt P98170); details: background statement; cited from earlier work
XIAP, sequence (P98170 whole entry): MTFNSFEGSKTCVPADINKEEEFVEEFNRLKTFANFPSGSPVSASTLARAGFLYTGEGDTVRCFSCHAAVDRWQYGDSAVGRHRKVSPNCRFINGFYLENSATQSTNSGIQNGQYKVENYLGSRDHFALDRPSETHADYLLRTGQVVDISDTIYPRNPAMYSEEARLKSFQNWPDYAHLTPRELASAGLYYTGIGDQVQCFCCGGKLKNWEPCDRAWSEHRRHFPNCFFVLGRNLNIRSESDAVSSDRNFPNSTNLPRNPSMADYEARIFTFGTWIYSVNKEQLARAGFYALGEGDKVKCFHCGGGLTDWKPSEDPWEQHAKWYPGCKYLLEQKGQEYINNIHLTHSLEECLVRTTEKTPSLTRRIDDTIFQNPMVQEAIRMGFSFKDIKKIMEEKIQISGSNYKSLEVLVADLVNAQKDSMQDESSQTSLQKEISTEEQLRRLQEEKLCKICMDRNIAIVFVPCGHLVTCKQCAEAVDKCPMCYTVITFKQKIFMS

Molecule: CC[C@H](N)C(=O)N[C@@H]1C(=O)N2[C@@H](CC[C@@H]1CO)CC[C@H]2C(=O)NC(c1ccccc1)c1ccccc1 [Compound 24a]
IC50 (HL60 cells [1]; HL60, 24 hrs): > 10 µM | IC50 (K562 cells [2]; K562, 24 hrs): > 10 µM | IC50 (K562 cells [2]; K562, 48 hrs): > 10 µM | IC50 (K562 cells [2]; K562, 72 hrs): > 10 µM | IC50 (ARH77 cell line; ARH77, 24 hrs): > 10 µM | IC50 (ARH77 cell line; ARH77, 48 hrs): > 10 µM | IC50 (ARH77 cell line; ARH77, 72 hrs): > 10 µM | IC50 (KMS26 cell line; KMS26, 24 hrs): > 10000 nM | viability at 0.01 µM (HL60 cells [3]): 110% | IC80 (MDA-MB-231 cells; MDA-MB-231, 96 hours, MTT): 3.9 ± 0.07 µM | viability at 0.05 µM (K562 cells [4]): 90%

Molecule: CC[C@H](NC)C(=O)N[C@@H]1C(=O)N2[C@@H](CC[C@@H]1CO)CC[C@H]2C(=O)NC(c1ccccc1)c1ccccc1 [Compound 24g]
IC50 (MDA-MB-231 cells; MDA-MB-231, 96 h): 0.237 ± 0.003 µM | IC80 (MDA-MB-231 cells; MDA-MB-231, 96 hours, MTT): 0.87 ± 0.004 µM

Molecule: CC[C@H](N)C(=O)N[C@@H]1C(=O)N2[C@@H](CC[C@@H]1CN=[N+]=[N-])CC[C@H]2C(=O)NC(c1ccccc1)c1ccccc1 [Compound 25a]
IC50 (HL60 cells [1]; HL60, 24 hrs): > 10 µM | IC50 (HL60 cells [1]; HL60, 48 hrs): 3.32 µM | IC50 (HL60 cells [1]; HL60, 72 hrs): 0.0018 µM | IC50 (K562 cells [2]; K562, 24 hrs): 4.78 µM | IC50 (K562 cells [2]; K562, 48 hrs): 3.95 µM | IC50 (K562 cells [2]; K562, 72 hrs): 2.13 µM

Molecule: CC[C@H](N)C(=O)N[C@@H]1C(=O)N2[C@@H](CC[C@@H]1CN)CC[C@H]2C(=O)NC(c1ccccc1)c1ccccc1 [Compound 26a]
IC50 (K562 cells [2]; K562, 24 hrs): 0.593 µM | IC50 (K562 cells [2]; K562, 48 hrs): 6e-05 µM | IC50 (K562 cells [2]; K562, 72 hrs): 8e-05 µM | IC50 (ARH77 cell line; ARH77, 24 hrs): > 10 µM | IC50 (ARH77 cell line; ARH77, 48 hrs): > 10 µM | IC50 (ARH77 cell line; ARH77, 72 hrs): > 10 µM | IC50 (KMS26 cell line; KMS26, 24 hrs): > 10000 nM | IC50 (KMS26 cell line; KMS26, 48 hrs): 0.002 nM | IC50 (KMS26 cell line; KMS26, 72 hrs): 62.3 nM

Molecule: CC[C@H](N)C(=O)N[C@@H]1C(=O)N2[C@@H](CC[C@@H]1COC(C)=O)CC[C@H]2C(=O)NC(c1ccccc1)c1ccccc1 [Compound 30a]
IC50 (HL60 cells [1]; HL60, 24 hrs): > 10 µM | IC50 (HL60 cells [1]; HL60, 48 hrs): 1.79 µM | IC50 (HL60 cells [1]; HL60, 72 hrs): 0.623 µM | IC50 (K562 cells [2]; K562, 24 hrs): > 10 µM | IC50 (K562 cells [2]; K562, 48 hrs): > 10 µM | IC50 (K562 cells [2]; K562, 72 hrs): > 10 µM

IC50 (human XIAP BIR3 domain): 0.324 µM | IC50 [5]: 0.085 µM
Molecule: CC[C@H](N)C(=O)N[C@@H]1C(=O)N2[C@@H](CC[C@@H]1CCN)CC[C@H]2C(=O)NC(c1ccccc1)c1ccccc1 [Compound 38a]
IC50 (MDA-MB-231 cells; MDA-MB-231, 96 hours, MTT): 12.9 ± 0.3 µM | IC80 (MDA-MB-231 cells; MDA-MB-231, 96 hours, MTT): 33.9 ± 0.7 µM

Molecule: CC[C@H](NC)C(=O)N[C@@H]1C(=O)N2[C@@H](CC[C@@H]1CCN)CC[C@H]2C(=O)NC(c1ccccc1)c1ccccc1 [Compound 38d]
IC50 (MDA-MB-231 cells; MDA-MB-231, 96 h): 2.3 ± 1.2 µM | IC80 (MDA-MB-231 cells; MDA-MB-231, 96 hours, MTT): 14.8 ± 1 µM

Molecule: CC[C@H](N)C(=O)N[C@@H]1C(=O)N2[C@@H](CC[C@@H]1Cn1cc(CO[C@H](C)[C@H](NC(=O)[C@H](C)NC)C(=O)N3CCC[C@H]3Cn3nnnc3Sc3ccccc3)nn1)CC[C@H]2C(=O)NC(c1ccccc1)c1ccccc1 [Compound 44a]
IC50 (ARH77 cell line; ARH77, 24 hrs): > 10 µM | IC50 (ARH77 cell line; ARH77, 48 hrs): > 10 µM | IC50 (ARH77 cell line; ARH77, 72 hrs): > 10 µM | IC50 (MDA-MB-231 cells; MDA-MB-231, 96 hours, MTT): 0.168 ± 0.002 µM | IC80 (MDA-MB-231 cells; MDA-MB-231, 96 hours, MTT): 0.288 ± 0.003 µM | viability at 0.0001 µM (K562 cells [4]): 89%

Molecule: CC[C@H](N)C(=O)N[C@@H]1C(=O)N2C(CC[C@@H]1CNC(=O)CCC#CC#CCCC(=O)NC[C@H]1CC[C@H]3CC[C@@H](C(=O)NC(c4ccccc4)c4ccccc4)N3C(=O)[C@H]1NC(=O)[C@@H](N)CC)CC[C@H]2C(=O)NC(c1ccccc1)c1ccccc1 (some centres unmarked) [Compound 46a]
IC50 (MDA-MB-231 cells; MDA-MB-231, 96 hours, MTT): 0.116 ± 0.002 µM | IC80 (MDA-MB-231 cells; MDA-MB-231, 96 hours, MTT): 0.17 ± 0.002 µM

Molecule: CC(=O)O[C@H]1C(=O)[C@@]2(C)[C@H]([C@H](OC(=O)c3ccccc3)[C@]3(O)C[C@H](OC(=O)[C@H](O)[C@@H](NC(=O)c4ccccc4)c4ccccc4)C(C)=C1C3(C)C)[C@]1(OC(C)=O)CO[C@@H]1C[C@@H]2O [Taxol, taxol, reference compound]
viability at 0.1 µM (K562 cells [4]): 69%

B1: mature Smac protein: mature Smac/DIABLO protein, endogenous inhibitor of XIAP (protein, UniProt Q9NR28 22-239, looked up)
Diablo IAP-binding …: LCVPVVANFKKRCFSELIRPWHKTVTIGFGVTLCAVPIAQKSEPHSLSSEALMRRAVSLVTDSTSTFLSQTTYALIEAITEYTKAVYTLTSLYRQYTSLLGKMNSEEEDEVWQVIIGARAEMTSKHQEYLKLETTWMTAVGLSEMAAEAAYQTGADQASITARNHIQLVKLQVEEVHQLSRKAETKLAEAQIEELRQKTQEEGEERAESEQEAYLRED
Kd (XIAP): 0.42 µM

From US8609685B2, “SMAC mimetic compounds as apoptosis inducers” (CISI SCRL, priority 2007, dated 2013)
